Assay results from paper PMC8249445, “Complex effects of macrolide venturicidins on bacterial F-ATPases likely contribute to their action as antibiotic adjuvants” (Scientific Reports, 2021).
Like-named read-outs stand apart in the source and are kept apart here.

Legend:
[1] = target: T1, PaFOF1 in membranes from P. aeruginosa strain PAO1 (Pseudomonas aeruginosa, UniProt Q9HT15); test: ATP hydrolysis by P. aeruginosa PAO1 membranes, enzyme-coupled spectrophotometric assay; assay type: biochemical; conditions: 38.5 mM selenite
T1 construct: endogenous in cells; host or cells: P. aeruginosa strain PAO1, inverted membrane vesicles
Procedure: P. aeruginosa strain PAO1 was grown in LB medium at 37 °C as described. For preparation of IMV, final cultures used 1 L of LB per 2L baffled flask and were inoculated from an overnight culture at an initial OD600 ~ 0.025. Cultures were shaken at 250 rpm and monitored until they reached mid- to late-logarithmic growth phase (OD600, 1–1.4). Cultures were chilled and subsequent steps for cell lysis and isolation of IMV were done at 4 °C. Cells were sedimented by centrifugation (3,700 × g, 30 min). Cells from 1 to 2 L of culture (~ 2–3 g wet cells/L) were resuspended in 25–40 ml of STEM buffer (TEM buffer plus sucrose[55]), transferred to a 50 ml Oak Ridge tube, sedimented again (11,617 × g, 10 min), resuspended in 20–40 ml of STEM and frozen at -80 °C. Thawed cells were lysed by two sequential passages through an SLM-Aminco French pressure cell at ~ 16,000 psi, essentially as described for E. coli[55]; the pressure cell was enclosed in a clear biohazard bag (MiniGrip, IP2024B3T) during use to contain any aerosols formed. Unlysed cells and cell wall debris were removed by centrifugation (50 ml Oak Ridge tubes, 16,743 × g, 25 min): the supernate was diluted with MTGM7.5 buffer (50 mM MOPS-TRIS, 10%(v/v) glycerol, 5 mM Mg(CH3COO)2, pH 7.5) and centrifugation was repeated at least twice, recovering the supernate each time. The final supernatant lysate was stored at -80 °C. To isolate IMV, the cleared lysate was thawed quickly and diluted with MTGM7.5 as needed to fill 1 or 2 polycarbonate tubes for use in a Beckman Ti70 rotor. The IMV (membranes) were sedimented by ultracentrifugation (250,000 × g max) for 1 h, the membranes were resuspended in MTGM7.5 buffer to fill one Ti70 tube and ultracentrifugation was repeated for 45 min. The membranes were resuspended in a small volume of MTGM7.5 buffer (typically ≥ 10 mg membrane protein/ml) and homogenized manually (Potter–Elvehjem type). Small aliquots of the final membrane sample were quick-frozen in liquid nitrogen and stored at − 80 °C.
ATP hydrolysis by membrane vesicles was assayed spectrophotometrically[57] at 30 °C using an open-chamber, diode array spectrophotometer (Hewlett Packard 8453 UV–Vis) as described in[29]. The assay medium (1 ml per assay) contained 20 mM Mops/Tris, pH 8.0, 0.2 mM EDTA, 10 mM CH3COOK, 1 mM ATP, 3.2 mM Mg(CH3COO)2, 1 mM phosphoenolpyruvate, at least 0.3 mM NADH, 0.1 mg/ml pyruvate kinase, 0.1 mg/ml lactate dehydrogenase, 5 mM KCN, and 5 μM carbonyl cyanide 4-(trifluoromethoxy)-phenylhydrazone. As noted before, the rate of ATP hydrolysis by membranes increases to a small degree during assays. This is due, at least in part, to dissociation of a small fraction of EcF1 and/or ε from the membranes, since the increase is inhibited by added ε (e.g., Fig. 5). To avoid interference of this increase with the changes of ATPase activity induced by venturicidins, unless indicated otherwise, measurement of ATPase activities were started 60 min after addition of membranes to the complete assay medium. This minimizes further increases in ATPase rate during control assays to < 15%. To keep absorbance between 1.5 and 2 units after the 60-min preincubation, up to 0.2 mM additional NADH was added to the assay medium. In figures displaying activity traces, some traces are shifted vertically for visual clarity.

S. aureus (MRSA) strains = conditions: cited from earlier work
mitoFOF1 = system: mitoFOF1; parameters: method as in PMID 124668; conditions: cited from earlier work

CCC(=O)C(C)C(O)C(C)CC(C)C1OC(=O)CC2(O)CC=C(C)C(O2)C(C)=CCCCC(OC2CC(OC(N)=O)C(O)C(C)O2)C=CC(C)CC1C (stereo not shown) [ventA, venturicidin A]
Inhibition of early ATPase rate [1]: up to 42% | ATPase remaining at saturating ventA ([1]; best fit of early rates): 62% (± 2) | ventA-sensitive ATPase ([1]; best fit of early rates): 42% (± 3) | Late rate, recovery of activity as % of uninhibited rate ([1]; concentration-dependent): up to 140% | Ki ([1]; read-out: Ki (inhibition of early rate)): 1200 nM | Reduction of cellular ATP (S. aureus (MRSA) strains; 16 μg ventA/ml): ~ 40% | Concentration at which maximal effect on Δψ was achieved (S. aureus (MRSA) strains; MRSA strain tested further): 16 μg ventA/ml | Reduction of cellular ATP (S. aureus (MRSA) strains; fourfold greater ventA than 16 μg/ml): ~ 90% | Stimulation of solubilized ATPase (mitoFOF1; detergent-solubilized mitoFOF1): up to 3 fold | Inhibition of membrane ATPase (mitoFOF1; mitoFOF1 in membranes): 95%
